In brackets after ≈: the same amount, converted by molar mass.
Experiments:
Plasmodium falciparum [1] = assay: Antimalarial activity against drug resistant Plasmodium falciparum W2 infected in human erythrocytes assessed as growth inhibition after 48 hrs by SYBR Green 1 staining-based fluorescence assay; type: functional, organism-based; details: W2, 48 h
[2] = Intrinsic clearance in human liver microsomes at 3 uM assessed per mg of protein up to 45 mins in presence of NADPH by LC-MS/MS analysis; type: ADME; details: read-out: CLH
Plasmodium falciparum [3] = assay: Antimalarial activity against drug resistant Plasmodium falciparum TM90C2B infected in human erythrocytes assessed as growth inhibition after 48 hrs by SYBR Green 1 staining-based fluorescence assay; type: functional, organism-based
[4] = Kinetic solubility of the compound in phosphate buffer at pH 1 at 200 uM; type: physicochemical; details: read-out: Kinetic_solubility
[5] = Kinetic solubility of the compound in fixanal buffer at pH 7.4 at 200 uM; type: physicochemical; details: read-out: Kinetic_solubility
Plasmodium falciparum [6] = assay: Antimalarial activity against Plasmodium falciparum 3D7 infected in human erythrocytes assessed as growth inhibition after 48 hrs by SYBR Green 1 staining-based fluorescence assay; type: functional, organism-based; details: 3D7, 48 h
cytochrome b-c1 complex [7] = assay: Inhibition of cytochrome b-c1 complex bovine heart mitochondrial membranes assessed as reduction in cytochrome c reductase activity using decylubiquinol as substrate at 100 uM by UV-visible spectrophotometric analysis; design: species or system Bos taurus; details: cattle, probe decylubiquinol
[8] = Intrinsic clearance in rat hepatocytes at 3 uM assessed per 10^6 cells up to 45 mins […] by LC-MS/MS analysis; type: ADME, cell-based, Hepatocyte; details: read-out: CLH
cytochrome b-c1 complex [9] = assay: Inhibition of cytochrome b-c1 complex bovine heart mitochondrial membranes assessed as reduction in cytochrome c reductase activity using decylubiquinol as substrate at 1 uM by UV-visible spectrophotometric analysis; design: species or system Bos taurus; details: cattle, probe decylubiquinol

solubility kinetic at 200 µM [4] [µM] | solubility kinetic at 200 µM [5] [µM] | SMILES | IC50 (Plasmodium falciparum [6]) [nM] | further results
– | – | COc1cccc2[nH]c(-c3ccc(-c4ccc(OC(F)(F)F)cc4)nc3)c(C)c(=O)c12 | > 1000 | –
– | – | COc1ccc2[nH]c(-c3ccc(-c4ccc(OC(F)(F)F)cc4)nc3)c(C)c(=O)c2c1 | > 1000 | –
– | – | COc1cccc2c(=O)c(C)c(-c3ccc(-c4ccc(OC(F)(F)F)cc4)nc3)[nH]c12 | > 1000 | –
– | – | Cc1c(-c2ccc(-c3ccc(OC(F)(F)F)cc3)nc2)[nH]c2ccc(O)cc2c1=O | 326 | –
– | – | Cc1c(-c2ccc(-c3ccc(OC(F)(F)F)cc3)nc2)[nH]c2c(O)cccc2c1=O | > 1000 | –
– | – | COc1ccc2c(=O)c(C)c(-c3ccc(-c4ccc(Cl)c(Cl)c4)nc3)[nH]c2c1 | 200 | –
15 (≈ 6.17 µg/mL) | 14 (≈ 5.76 µg/mL) | COc1ccc2c(=O)c(C)c(-c3cncc(-c4ccc(Cl)c(Cl)c4)c3)[nH]c2c1 | 18 | microsomal CLint at 3 µM [2]: 14 µL/min/mg; inhibition at 100 µM (cytochrome b-c1 complex [7]): 13%; hepatocyte CLint at 3 µM [8]: 4.9 µL/min/1e6 cells; inhibition at 1 µM (cytochrome b-c1 complex [9]): 20%
140 (≈ 55.5 µg/mL) | 3.6 (≈ 1.43 µg/mL) | Cc1c(-c2cncc(-c3ccc(OC(F)(F)F)cc3)c2)[nH]c2ccccc2c1=O | 41 | microsomal CLint at 3 µM [2]: 12.5 µL/min/mg; inhibition at 100 µM (cytochrome b-c1 complex [7]): 20%; hepatocyte CLint at 3 µM [8]: 1.8 µL/min/1e6 cells; inhibition at 1 µM (cytochrome b-c1 complex [9]): 25%
– | – | Cc1c(-c2cccc(-c3ccc(OC(F)(F)F)cc3)n2)[nH]c2ccccc2c1=O | 390 | –
2.6 (≈ 1.11 µg/mL) | < 1 | COc1ccc2c(=O)c(C)c(-c3ccc(-c4ccc(OC(F)(F)F)cc4)nc3)[nH]c2c1 | 14 | inhibition at 100 µM (cytochrome b-c1 complex [7]): 55%; inhibition at 1 µM (cytochrome b-c1 complex [9]): 98%
– | – | COc1ccc2c(=O)c(C)c(-c3cc(-c4ccc(OC(F)(F)F)cc4)ccn3)[nH]c2c1 | 150 | –
– | – | COc1ccc2c(=O)c(C)c(-c3ccc(-c4ccc(OC(F)(F)F)cc4)cn3)[nH]c2c1 | > 1000 | –
– | – | Cc1c(-c2ccc(-c3ccc(OC(F)(F)F)cc3)cn2)[nH]c2ccccc2c1=O | > 1000 | –
– | – | COc1ccc2c(=O)c(C)c(-c3cccc(-c4ccc(OC(F)(F)F)cc4)n3)[nH]c2c1 | 149 | –
– | – | O=c1c2c([nH]c3ccccc13)CN(Cc1ccc(OC(F)(F)F)cc1)C2 | 200 | –
– | – | O=c1c2c([nH]c3ccccc13)CN(Cc1ccc(Cl)c(Cl)c1)C2 | 70 | –
– | – | Cc1c(-c2cncc(-c3ccc(Cl)c(Cl)c3)c2)[nH]c2ccccc2c1=O | 40 | microsomal CLint at 3 µM [2]: 5.6 µL/min/mg; hepatocyte CLint at 3 µM [8]: 9.9 µL/min/1e6 cells
79 (≈ 31.3 µg/mL) | 2.1 (≈ 0.832 µg/mL) | Cc1c(-c2ccnc(-c3ccc(OC(F)(F)F)cc3)c2)[nH]c2ccccc2c1=O | 21 | microsomal CLint at 3 µM [2]: 7.7 µL/min/mg; inhibition at 100 µM (cytochrome b-c1 complex [7]): 52%; hepatocyte CLint at 3 µM [8]: 2.5 µL/min/1e6 cells; inhibition at 1 µM (cytochrome b-c1 complex [9]): 81%
– | – | O=C1C(O)=C([C@H]2CC[C@H](c3ccc(Cl)cc3)CC2)C(=O)c2ccccc21 [ATOVAQUONE] | – | IC50 (Plasmodium falciparum [1]): 0.3 nM; IC50 (Plasmodium falciparum [3]): 9910 nM

SMILES | solubility kinetic at 200 µM [4] [µM] | solubility kinetic at 200 µM [5] [µM] | IC50 (Plasmodium falciparum [6]) [nM] | further results
Cc1c(-c2ccc(-c3ccc(OC(F)(F)F)cc3)nc2)[nH]c2ccccc2c1=O | 3.2 (≈ 1.27 µg/mL) | < 1 | – | IC50 (Plasmodium falciparum [1]): 48 nM; microsomal CLint at 3 µM [2]: 20.6 µL/min/mg; IC50 (Plasmodium falciparum [3]): 156 nM
COc1ccc2c(=O)c(C)c(-c3ccnc(-c4ccc(OC(F)(F)F)cc4)c3)[nH]c2c1 | 120 (≈ 51.2 µg/mL) | < 1 | 12 | IC50 (Plasmodium falciparum [1]): 4.2 nM; IC50 (Plasmodium falciparum [3]): 7 nM; inhibition at 100 µM (cytochrome b-c1 complex [7]): 63%; inhibition at 1 µM (cytochrome b-c1 complex [9]): 85%
COc1ccc2c(=O)c(C)c(-c3cncc(-c4ccc(OC(F)(F)F)cc4)c3)[nH]c2c1 | 7.8 (≈ 3.33 µg/mL) | < 1 | 12 | IC50 (Plasmodium falciparum [1]): 4 nM; microsomal CLint at 3 µM [2]: 25.9 µL/min/mg; IC50 (Plasmodium falciparum [3]): 7.2 nM; inhibition at 100 µM (cytochrome b-c1 complex [7]): 19%; hepatocyte CLint at 3 µM [8]: 1.2 µL/min/1e6 cells; inhibition at 1 µM (cytochrome b-c1 complex [9]): 81%

From ChEMBL document CHEMBL3739389, “2-Pyridylquinoloneantimalarials with improved antimalarial activity and physicochemical properties” (Medchemcomm, 2015)
